The results in this text go back to EP0820452B1, “CARBONYL-PIPERAZINYL AND PIPERIDINIL COMPOUNDS WHICH INHIBIT FARNESYL PROTEIN TRANSFERASE” (SCHERING CORPORATION, priority 1995, dated 1996).

This experiment deals with FTase (Homo sapiens, UniProt P49354+P49356). Put plainly: in vitro assay measuring the inhibition of FTase (FPT IC50), methods of WO95/10516. The conditions noted are these: concentration of compound which inhibits 50% of FPT transferase. In kind it is biochemical. An excerpt: Measurements of pharmacological activity of the present compounds can be made based upon a […] (i.e. FPT lC50), cell mat assay (GGPT lC50) or in vitro tumor activity (Cos Cell lC50) as described by the methods in W095/10516.
FPT lC50 values refer to concentration, in micromoles (µM), of compound which inhibits 50% of FPT transferase

FTase, sequence (P49356 whole entry, one chain of several): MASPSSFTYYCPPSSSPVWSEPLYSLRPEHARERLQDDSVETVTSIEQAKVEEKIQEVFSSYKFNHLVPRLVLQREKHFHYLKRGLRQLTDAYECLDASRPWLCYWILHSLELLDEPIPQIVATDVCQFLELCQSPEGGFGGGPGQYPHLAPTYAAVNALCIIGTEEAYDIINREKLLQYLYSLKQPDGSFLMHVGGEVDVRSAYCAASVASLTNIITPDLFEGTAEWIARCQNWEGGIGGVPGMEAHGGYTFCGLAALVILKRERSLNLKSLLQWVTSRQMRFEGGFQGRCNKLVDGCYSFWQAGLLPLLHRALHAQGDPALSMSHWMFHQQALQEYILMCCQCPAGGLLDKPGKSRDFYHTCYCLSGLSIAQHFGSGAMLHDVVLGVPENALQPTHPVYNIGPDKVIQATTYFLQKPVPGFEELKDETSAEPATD

As usually defined, the IC50 is the concentration at which inhibition is half-maximal. Molecule `CC(C)NC(=O)CC1CN(C(=O)c2ccc3ccccc3c2)CCN1C(=O)Cc1ccncc1` (stereo not shown) gave an IC50 of over 50 µM.
